Reference: patent publication US8084649B2, “Herbicides” (Syngenta Crop Protection, inc., priority 2007, dated 2011)

The compounds below were run on Alopecurus myosuroides (ALOMY) (assay: Pre-emergence herbicidal activity, glasshouse pot test). Conditions: Alopecurus myosuroides, 480 h, rate 250 g/ha, evaluated after 20 days, read-out: Pre-emergence activity, ALOMY (100=total damage to plant; 0=no damage to plant).
Type: in vivo
How it was run: (§1)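 Visual damage score 0–100 (100 = plant totally killed), taken 20 days after treatment. Spray was applied to pots of sterilised standard soil one day post-sowing, using an aqueous solution of compound in acetone and a surfactant/solvent blend (Emulsogen EL, NMP, DPGME, X-77).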
With `CCc1cc(C)cc(CC)c1C1=C(O)CC(C(C)(C)S(C)(=O)=O)CC1=O` (stereo not drawn) [Compound T19] the pest or weed control at 250 g/ha was 70%.

Same assay, conditions: Alopecurus myosuroides, 480 h, rate 500 g/ha, evaluated after 20 days, read-out: Pre-emergence activity, ALOMY (100=total damage to plant; 0=no damage to plant)
`C=CCOC(=O)OC1=C(c2c(CC)cc(C)cc2CC)C(=O)CC2(CCOCC2)C1` [Compound P21] gave a pest or weed control at 500 g/ha of 100%.

What follows are compounds tested on Avena fatua (AVEFA) in the same assay as above. Conditions: Avena fatua, 480 h, rate 250 g/ha, evaluated after 20 days, read-out: Pre-emergence activity, AVEFA (100=total damage to plant; 0=no damage to plant).
Type: in vivo
How it was run: as §1
`CCc1cc(C)cc(CC)c1C1=C(O)CC(C(C)(C)S(C)(=O)=O)CC1=O` (stereo not drawn) [Compound T19] was tested, and the pest or weed control at 250 g/ha was 70%.

Same assay, conditions: Avena fatua, 480 h, rate 500 g/ha, evaluated after 20 days, read-out: Pre-emergence activity, AVEFA (100=total damage to plant; 0=no damage to plant)
`C=CCOC(=O)OC1=C(c2c(CC)cc(C)cc2CC)C(=O)CC2(CCOCC2)C1` [Compound P21] was tested, and the pest or weed control at 500 g/ha was 100%.

What follows are compounds tested on Digitaria sanguinalis (DIGSA) in the same assay as above. Conditions: Digitaria sanguinalis, 480 h, rate 250 g/ha, evaluated after 20 days, read-out: Pre-emergence activity, DIGSA (100=total damage to plant; 0=no damage to plant).
Type: in vivo
How it was run: as §1
Work on `CCc1cc(C)cc(CC)c1C1=C(O)CC(C(C)(C)S(C)(=O)=O)CC1=O` (stereo not drawn) [Compound T19] yielded a pest or weed control at 250 g/ha of 90%.

Same assay, conditions: Digitaria sanguinalis, 480 h, rate 500 g/ha, evaluated after 20 days, read-out: Pre-emergence activity, DIGSA (100=total damage to plant; 0=no damage to plant)
In the case of `C=CCOC(=O)OC1=C(c2c(CC)cc(C)cc2CC)C(=O)CC2(CCOCC2)C1` [Compound P21], the pest or weed control at 500 g/ha is reported as 100%.

What follows are compounds tested on Echinochloa crus-galli (ECHCG) in the same assay as above. Conditions: Echinochloa crus-galli, 480 h, rate 250 g/ha, evaluated after 20 days, read-out: Pre-emergence activity, ECHCG (100=total damage to plant; 0=no damage to plant).
Type: in vivo
How it was run: as §1
With `CCc1cc(C)cc(CC)c1C1=C(O)CC(C(C)(C)S(C)(=O)=O)CC1=O` (stereo not drawn) [Compound T19] the pest or weed control at 250 g/ha was 80%.

Same assay, conditions: Echinochloa crus-galli, 480 h, rate 500 g/ha, evaluated after 20 days, read-out: Pre-emergence activity, ECHCG (100=total damage to plant; 0=no damage to plant)
In the case of `C=CCOC(=O)OC1=C(c2c(CC)cc(C)cc2CC)C(=O)CC2(CCOCC2)C1` [Compound P21], the pest or weed control at 500 g/ha is reported as 100%.

The compounds below were run on Lolium perenne (LOLPE) in the same assay as above. Conditions: Lolium perenne, 480 h, rate 250 g/ha, evaluated after 20 days, read-out: Pre-emergence activity, LOLPE (100=total damage to plant; 0=no damage to plant).
Type: in vivo
How it was run: as §1
In the case of `CCc1cc(C)cc(CC)c1C1=C(O)CC(C(C)(C)S(C)(=O)=O)CC1=O` (stereo not drawn) [Compound T19], the pest or weed control at 250 g/ha is reported as 80%.

Same assay, conditions: Lolium perenne, 480 h, rate 500 g/ha, evaluated after 20 days, read-out: Pre-emergence activity, LOLPE (100=total damage to plant; 0=no damage to plant)
For `C=CCOC(=O)OC1=C(c2c(CC)cc(C)cc2CC)C(=O)CC2(CCOCC2)C1` [Compound P21], the pest or weed control at 500 g/ha was 100%.

Each compound was assayed on Setaria faberi (SETFA) in the same assay as above. Conditions: Setaria faberi, 480 h, rate 250 g/ha, evaluated after 20 days, read-out: Pre-emergence activity, SETFA (100=total damage to plant; 0=no damage to plant).
Type: in vivo
How it was run: as §1
For `CCc1cc(C)cc(CC)c1C1=C(O)CC(C(C)(C)S(C)(=O)=O)CC1=O` (stereo not drawn) [Compound T19], the pest or weed control at 250 g/ha was 50%.

Same assay, conditions: Setaria faberi, 480 h, rate 500 g/ha, evaluated after 20 days, read-out: Pre-emergence activity, SETFA (100=total damage to plant; 0=no damage to plant)
Work on `C=CCOC(=O)OC1=C(c2c(CC)cc(C)cc2CC)C(=O)CC2(CCOCC2)C1` [Compound P21] yielded a pest or weed control at 500 g/ha of 100%.

These compounds were tested on Alopecurus myosuroides (ALOMY) (assay: Post-emergence herbicidal activity, glasshouse pot test). Conditions: Alopecurus myosuroides, rate 125 g/ha, evaluated after 14 or 15 days, read-out: Post-emergence activity, ALOMY (100=total damage to plant; 0=no damage to plant).
Type: in vivo
How it was run: (§2)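 Damage rated visually on a 0–100 scale (100 = total damage) 14 or 15 days after spraying. Pots of sterilised standard soil; plants treated post-emergence after 10 days glasshouse cultivation with an aqueous spray from an acetone/Emulsogen EL/N-methylpyrrolidone/dipropylene glycol monomethyl ether/X-77 formulation.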
Work on `C=CCOC(=O)OC1=C(c2c(CC)cc(C)cc2CC)C(=O)CC2(CCOCC2)C1` [Compound P21] yielded a pest or weed control at 125 g/ha of 100%.

Same assay, conditions: Alopecurus myosuroides, rate 250 g/ha, evaluated after 14 or 15 days, read-out: Post-emergence activity, ALOMY (100=total damage to plant; 0=no damage to plant)
`CCc1cc(C)cc(CC)c1C1=C(O)CC(C(C)(C)S(C)(=O)=O)CC1=O` (stereo not drawn) [Compound T19] was tested, and the pest or weed control at 250 g/ha was 80%.

What follows are compounds tested on Avena fatua (AVEFA) in the same assay as above. Conditions: Avena fatua, rate 125 g/ha, evaluated after 14 or 15 days, read-out: Post-emergence activity, AVEFA (100=total damage to plant; 0=no damage to plant).
Type: in vivo
How it was run: as §2
In the case of `C=CCOC(=O)OC1=C(c2c(CC)cc(C)cc2CC)C(=O)CC2(CCOCC2)C1` [Compound P21], the pest or weed control at 125 g/ha is reported as 100%.

Same assay, conditions: Avena fatua, rate 250 g/ha, evaluated after 14 or 15 days, read-out: Post-emergence activity, AVEFA (100=total damage to plant; 0=no damage to plant)
`CCc1cc(C)cc(CC)c1C1=C(O)CC(C(C)(C)S(C)(=O)=O)CC1=O` (stereo not drawn) [Compound T19] gave a pest or weed control at 250 g/ha of 80%.

Each compound was assayed on Digitaria sanguinalis (DIGSA) in the same assay as above. Conditions: Digitaria sanguinalis, rate 125 g/ha, evaluated after 14 or 15 days, read-out: Post-emergence activity, DIGSA (100=total damage to plant; 0=no damage to plant).
Type: in vivo
How it was run: as §2
For `C=CCOC(=O)OC1=C(c2c(CC)cc(C)cc2CC)C(=O)CC2(CCOCC2)C1` [Compound P21], the pest or weed control at 125 g/ha was 100%.

Same assay, conditions: Digitaria sanguinalis, rate 250 g/ha, evaluated after 14 or 15 days, read-out: Post-emergence activity, DIGSA (100=total damage to plant; 0=no damage to plant)
With `CCc1cc(C)cc(CC)c1C1=C(O)CC(C(C)(C)S(C)(=O)=O)CC1=O` (stereo not drawn) [Compound T19] the pest or weed control at 250 g/ha was 80%.

Each compound was assayed on Echinochloa crus-galli (ECHCG) in the same assay as above. Conditions: Echinochloa crus-galli, rate 125 g/ha, evaluated after 14 or 15 days, read-out: Post-emergence activity, ECHCG (100=total damage to plant; 0=no damage to plant).
Type: in vivo
How it was run: as §2
In the case of `C=CCOC(=O)OC1=C(c2c(CC)cc(C)cc2CC)C(=O)CC2(CCOCC2)C1` [Compound P21], the pest or weed control at 125 g/ha is reported as 100%.

Same assay, conditions: Echinochloa crus-galli, rate 250 g/ha, evaluated after 14 or 15 days, read-out: Post-emergence activity, ECHCG (100=total damage to plant; 0=no damage to plant)
`CCc1cc(C)cc(CC)c1C1=C(O)CC(C(C)(C)S(C)(=O)=O)CC1=O` (stereo not drawn) [Compound T19] was tested, and the pest or weed control at 250 g/ha was 80%.

The compounds below were run on Lolium perenne (LOLPE) in the same assay as above. Conditions: Lolium perenne, rate 125 g/ha, evaluated after 14 or 15 days, read-out: Post-emergence activity, LOLPE (100=total damage to plant; 0=no damage to plant).
Type: in vivo
How it was run: as §2
`C=CCOC(=O)OC1=C(c2c(CC)cc(C)cc2CC)C(=O)CC2(CCOCC2)C1` [Compound P21] was tested, and the pest or weed control at 125 g/ha was 90%.

Same assay, conditions: Lolium perenne, rate 250 g/ha, evaluated after 14 or 15 days, read-out: Post-emergence activity, LOLPE (100=total damage to plant; 0=no damage to plant)
`CCc1cc(C)cc(CC)c1C1=C(O)CC(C(C)(C)S(C)(=O)=O)CC1=O` (stereo not drawn) [Compound T19] was tested, and the pest or weed control at 250 g/ha was 80%.

Each compound was assayed on Setaria faberi (SETFA) in the same assay as above. Conditions: Setaria faberi, rate 125 g/ha, evaluated after 14 or 15 days, read-out: Post-emergence activity, SETFA (100=total damage to plant; 0=no damage to plant).
Type: in vivo
How it was run: as §2
`C=CCOC(=O)OC1=C(c2c(CC)cc(C)cc2CC)C(=O)CC2(CCOCC2)C1` [Compound P21] was tested, and the pest or weed control at 125 g/ha was 90%.

Same assay, conditions: Setaria faberi, rate 250 g/ha, evaluated after 14 or 15 days, read-out: Post-emergence activity, SETFA (100=total damage to plant; 0=no damage to plant)
For `CCc1cc(C)cc(CC)c1C1=C(O)CC(C(C)(C)S(C)(=O)=O)CC1=O` (stereo not drawn) [Compound T19], the pest or weed control at 250 g/ha was 80%.
